Data set [1] concerns the target T1, human calcium-sensing receptor (CaSR) (Homo sapiens, UniProt P41180).
T1 construct: expressed in transfected cells; host or cells: HEK 293T cells, transiently transfected (lipofectamine 2000); in some cases HEK293 cells stably transfected
T1 sequence (P41180 20-1078): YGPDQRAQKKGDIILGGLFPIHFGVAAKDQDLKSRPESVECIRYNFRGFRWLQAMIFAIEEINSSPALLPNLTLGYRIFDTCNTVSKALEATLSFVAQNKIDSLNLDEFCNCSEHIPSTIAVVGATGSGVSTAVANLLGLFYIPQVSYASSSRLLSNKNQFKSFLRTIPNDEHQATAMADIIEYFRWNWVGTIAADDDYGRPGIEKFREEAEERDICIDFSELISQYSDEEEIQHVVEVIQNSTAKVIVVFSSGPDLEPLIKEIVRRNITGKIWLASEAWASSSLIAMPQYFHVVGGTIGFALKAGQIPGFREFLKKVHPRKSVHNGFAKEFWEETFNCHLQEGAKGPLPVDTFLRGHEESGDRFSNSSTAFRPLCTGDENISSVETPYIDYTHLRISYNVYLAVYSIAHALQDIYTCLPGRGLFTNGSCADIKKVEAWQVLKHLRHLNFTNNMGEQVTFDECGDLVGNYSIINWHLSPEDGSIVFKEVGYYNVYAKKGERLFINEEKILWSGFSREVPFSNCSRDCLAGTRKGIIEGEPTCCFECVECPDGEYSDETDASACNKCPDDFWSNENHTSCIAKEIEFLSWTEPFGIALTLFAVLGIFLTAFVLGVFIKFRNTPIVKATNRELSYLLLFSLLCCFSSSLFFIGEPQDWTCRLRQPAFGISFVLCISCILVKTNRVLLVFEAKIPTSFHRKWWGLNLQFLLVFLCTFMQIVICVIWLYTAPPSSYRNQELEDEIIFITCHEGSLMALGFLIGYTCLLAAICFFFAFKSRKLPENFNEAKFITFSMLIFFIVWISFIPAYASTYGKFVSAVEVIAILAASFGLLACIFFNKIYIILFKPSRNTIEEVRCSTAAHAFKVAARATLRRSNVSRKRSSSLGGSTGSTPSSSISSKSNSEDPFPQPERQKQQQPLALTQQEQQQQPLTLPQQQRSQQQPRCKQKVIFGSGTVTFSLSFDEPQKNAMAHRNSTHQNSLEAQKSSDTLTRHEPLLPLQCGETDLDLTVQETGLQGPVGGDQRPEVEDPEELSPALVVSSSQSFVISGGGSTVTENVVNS
Nature of the data set: In vitro cell assay in HEK-293 expressing the human calcium-sensing receptor (IP1 production). It counts as cell-based. The protocol:
The activity of a variety of peptides and conjugates was tested against the human CaSR. These studies were conducted by measuring IP1 production in HEK293 cells that express the human CaSR. Each peptide was tested in eight different concentrations, in duplicates, to establish a dose response curve. Curve fitting was performed using GraphPad Prism. In Table 5, and throughout the specification, residues provided in capital letters are L-amino acids, while lower case letters indicate D-amino acids. “Ac” indicates an acetyl capping group, “NH2” indicates an amide capping group, “Ac-bAla” is an acetylated beta-alanine, “GSH” indicates reduced glutathione, “GS” indicates oxidized glutathione, “PEG” refers to polyethylene glycol, “PEG2” and “PEGS” refer to polyethylene glycol moieties of 2 kDa and 5 kDa, respectively, and “Mpa” refers to mercaptopropionic acid.
The day after, these cells were transfected with human CaSR receptor using lipofectamine 2000 transfection reagent 24 hrs post transfection, cells were seeded in 384 well plates at 8,000 cells/well. […] In some cases, EC50 values were determined by measuring inositol monophosphate production in the HEK293 cells, stably transfected with the human calcium-sensing receptor (see Table 1).
Cells were incubated with compounds at various concentrations (1 mM or 300 μM as the highest and further ½ log serial dilutions) at 37° C. for 1.5 hrs before reaction termination. […] In brief, incubation with the compound was terminated by sequentially adding D2 labeled-IP1 and cryptate-labeled anti-IP1 in lysis buffer and further incubating at room temperature for 60 minutes. […] Non-transfected 293 cells were used as negative control.
IP1 concentrations were calculated from standard curves (generated with Graph Pad Prism ver. 4) using known concentrations of IP1 standards.

For data set [2], the system named is rat peritoneal mast cells. Nature of the data set: In vitro histamine induction in rat peritoneal mast cells. It is filed as cell-based. The essentials: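 Mast cells from peritoneal lavage of Sprague Dawley rats were incubated with compound at 10 μM for 15 min at 37 °C in HBSS + 25 mM HEPES pH 7.4. Supernatant histamine measured by EIA; response expressed as fold change versus pre-incubation levels.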

In the next data set the test system is plasma PTH. Nature of the data set: In vivo PTH lowering after IV bolus in isoflurane-anesthetized normal Sprague Dawley rats. Details: species or system rat. Particulars: for duration of decreased PTH: 0.5 mg/kg IV bolus, FIG. 5; for duration of decreased PTH / 0.5 mg/kg IV bolus % PTH AUC of saline control: normal rats; for PTH-lowering activity in normal rats: 0.5 mg/kg single IV administration; for % PTH reduction of baseline at 1 hour post IV admin. of 0.5 mg/kg compound: isoflurane-anesthetized normal rats, 0.5 mg/kg IV. The essentials:
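Peptides were given as a 0.5 mg/kg IV bolus to normal Sprague Dawley rats kept under isoflurane throughout, with saline bolus controls.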

Setting [3] is: Table 1, IP1 in HEK293 cells expressing human CaSR, read-out: In vitro EC50.
[4] abbreviates: Table 5, IP1 production in HEK293 cells expressing human CaSR, eight concentrations in duplicate, read-out: EC50 in CaSR in vitro assay.
[5] abbreviates: Table 1, PTH at 1, 2, 3, 4 h, AUCcmpd treated/AUCsaline control*100.

Like-named read-outs stand apart in the source and are kept apart here. Square brackets hold non-standard residues; d marks the D form. Peptide text beside a SMILES is read from it.

Consider `CC(=O)N[C@H](CS)C(=O)N[C@H](C)C(=O)N[C@H](CCCNC(=N)N)C(=O)N[C@H](CCCNC(=N)N)C(=O)N[C@H](CCCNC(=N)N)C(=O)N[C@H](CCCNC(=N)N)C(=O)N[C@H](CCCNC(=N)N)C(N)=O` [SEQ ID NO: 8, Ac-carrrrr-NH2] (Ac-[dC][dA][dR][dR][dR][dR][dR]-NH2), for which the concentration giving a half-maximal response (EC50) in data set [1] (setting [3]) was 1100 nM. Besides, in data set [1] (setting [4]), the EC50 stood at 1100 nM. Also, the “Histamine in vitro Fold change of non-treated at 10 uM” value in data set [2] came out at 6.6 fold. Further, in the data set with plasma PTH, the “duration of decreased PTH” value is recorded as “at least four hours” and the “PTH-lowering activity in normal rats” value is on record as “below the detection limit or essentially zero”. Also, the “% PTH reduction of baseline at 1 hour post IV admin. of 0.5 mg/kg compound” value (“% PTH reduction of baseline” for short) in the data set on plasma PTH (Table 1) is listed as 0%. Moreover, the “0.5 mg/kg IV bolus % PTH AUC of saline control” value (from here on “0.5 mg/kg IV bolus % PTH AUC”) in the data set with plasma PTH (setting [5]) was determined as 0%.

On to `CC(=O)N[C@H](CS)C(=O)N[C@H](CCCNC(=N)N)C(=O)N[C@H](C)C(=O)N[C@H](CCCNC(=N)N)C(=O)N[C@H](CCCNC(=N)N)C(=O)N[C@H](CCCNC(=N)N)C(=O)N[C@H](CCCNC(=N)N)C(N)=O` [SEQ ID NO: 9, Ac-crarrrr-NH2] (Ac-[dC][dR][dA][dR][dR][dR][dR]-NH2), for which the EC50 in data set [1] (setting [3]) and in data set [1] (setting [4]) was 1000 nM each time. In addition, the “Histamine in vitro Fold change of non-treated at 10 uM” value in data set [2] is listed as 6.8 fold. Besides, in the data set with plasma PTH (Table 1), the “% PTH reduction of baseline” value was 0%. For the same compound, the “0.5 mg/kg IV bolus % PTH AUC” value in the data set with plasma PTH (setting [5]) worked out at 7%.

For `CC(=O)N[C@H](CS)C(=O)N[C@H](CCCNC(=N)N)C(=O)N[C@H](CCCNC(=N)N)C(=O)N[C@H](C)C(=O)N[C@H](CCCNC(=N)N)C(=O)N[C@H](CCCNC(=N)N)C(=O)N[C@H](CCCNC(=N)N)C(N)=O` [SEQ ID NO: 10, Ac-crrarrr-NH2] (Ac-[dC][dR][dR][dA][dR][dR][dR]-NH2), the EC50 in data set [1] (setting [3]) was 1100 nM. The concentration for a half-maximal effect (EC50) in data set [1] (setting [4]) was 1100 nM. Also, in data set [2], the “Histamine in vitro Fold change of non-treated at 10 uM” value came out at 5.3 fold. In the data set with plasma PTH, the “duration of decreased PTH” value is recorded as “at least four hours” and the “PTH-lowering activity in normal rats” value was “below the detection limit or essentially zero”. The “% PTH reduction of baseline” value with plasma PTH (Table 1) turned out to be 0%. Besides, the “0.5 mg/kg IV bolus % PTH AUC” value in the data set on plasma PTH (setting [5]) is 0%.

For the compound `CC(=O)N[C@H](CS)C(=O)N[C@H](CCCNC(=N)N)C(=O)N[C@H](CCCNC(=N)N)C(=O)N[C@H](CCCNC(=N)N)C(=O)N[C@H](C)C(=O)N[C@H](CCCNC(=N)N)C(=O)N[C@H](CCCNC(=N)N)C(N)=O` [SEQ ID NO: 11, Ac-crrrarr-NH2] (Ac-[dC][dR][dR][dR][dA][dR][dR]-NH2), the EC50 in data set [1] (setting [3]) and in data set [1] (setting [4]) was 5900 nM throughout. For the same compound, the “Histamine in vitro Fold change of non-treated at 10 uM” value in data set [2] is 5.0 fold. Moreover, the “% PTH reduction of baseline” value with plasma PTH (Table 1) was found to be 9%. Further, the “0.5 mg/kg IV bolus % PTH AUC” value in the data set on plasma PTH (setting [5]) turned out to be 45%.

In the case of `CC(=O)N[C@H](CS)C(=O)N[C@H](CCCNC(=N)N)C(=O)N[C@H](CCCNC(=N)N)C(=O)N[C@H](CCCNC(=N)N)C(=O)N[C@H](CCCNC(=N)N)C(=O)N[C@H](C)C(=O)N[C@H](CCCNC(=N)N)C(N)=O` [SEQ ID NO: 12, Ac-crrrrar-NH2] (Ac-[dC][dR][dR][dR][dR][dA][dR]-NH2), the EC50 in data set [1] (setting [3]) and in data set [1] (setting [4]) was 450 nM throughout. The “Histamine in vitro Fold change of non-treated at 10 uM” value in data set [2] amounted to 5.0 fold. The “duration of decreased PTH” value in the data set with plasma PTH was “at least four hours”. In addition, the “% PTH reduction of baseline” value with plasma PTH (Table 1) was 3%. Besides, the “0.5 mg/kg IV bolus % PTH AUC” value in the data set with plasma PTH (setting [5]) was determined as 3%.

With `CC(=O)N[C@H](CS)C(=O)N[C@H](CCCNC(=N)N)C(=O)N[C@H](CCCNC(=N)N)C(=O)N[C@H](CCCNC(=N)N)C(=O)N[C@H](CCCNC(=N)N)C(=O)N[C@H](CCCNC(=N)N)C(=O)N[C@H](C)C(N)=O` [SEQ ID NO: 13, Ac-crrrrra-NH2] (Ac-[dC][dR][dR][dR][dR][dR][dA]-NH2), the EC50 in data set [1] (setting [3]) and in data set [1] (setting [4]) was 1100 nM each time. The “Histamine in vitro Fold change of non-treated at 10 uM” value in data set [2] stood at 4.1 fold. In addition, the “% PTH reduction of baseline” value in the data set with plasma PTH (Table 1) worked out at 4%. Besides, the “0.5 mg/kg IV bolus % PTH AUC” value in the data set with plasma PTH (setting [5]) worked out at 28%.

Turning to `CC(=O)N[C@H](CS)C(=O)N[C@H](C)C(=O)N[C@H](CCCNC(=N)N)C(=O)N[C@H](CCCNC(=N)N)C(=O)N[C@H](CCCNC(=N)N)C(=O)N[C@H](CCC(=O)O)C(=O)N[C@H](CCCNC(=N)N)C(N)=O` [SEQ ID NO: 68, Ac-carrrer-NH2] (Ac-[dC][dA][dR][dR][dR][dE][dR]-NH2), in data set [1] (setting [4]), the half-maximal effective concentration (EC50) turned out to be 62000 nM. Besides, the “Histamine in vitro Fold change of non-treated at 10 uM” value in data set [2] is 1.3 fold. In the data set with plasma PTH (Table 6, AUC 1-4 h), the “0.5 mg/kg IV bolus % PTH AUC” value was 81%.

(Values after patent publication US10280198B2, “Therapeutic agents for reducing parathyroid hormone levels” (KAI PHARMACEUTICALS, INC., priority 2009, dated 2019).)
